From patent US20100143477A1, “Methods and Compositions for Stimulating the Proliferation or Differentiation of Stem Cells with Substance Por an Analog Thereof” (Immuneregen Biosciences, Inc., priority 2007, published 2010)

How the values were obtained:
[1] = tested on: human-derived hematopoietic cell populations; assay: CFC assay, multi-donor study, all seven cell populations (Example 4); format: cell-based; settings: highest doses (up to 1 nM); three donors
Experimental: Compound was dissolved in 1 ml of Iscove's Modified Dulbecco's Medium (IMDM) and a serial dose response was prepared in single log doses so that the final dose in culture ranged from 1 nanoMolar (nM) to 1×10^−16 M. All working dilutions were performed in IMDM. Cell cultures from each donor were started at different times and a fresh solution of Homspera® was prepared for each individual experiment.
Starting with human bone marrow aspirate, the mononuclear cell (MNC) fraction from each aspirate was separated from whole bone marrow using Ficoll-Paque density gradient centrifugation.
The colony-forming cell (CFC) assay was performed using optimal growth factor/cytokine concentrations. The reagents and conditions were similar to those used in Example 3, except that no ATP measurements were performed. The MNC fraction from each bone marrow donor was dissolved in IMDM and cultured at a concentration of 5,000 cells/well in a Culture Master Mix (HemoGenix, Inc., Colorado Springs, Colo.). […]
The mean, standard deviation and percent coefficient of variation was calculated for all groups, transposed and plotted as a function of donor. The percent from control values were calculated and also plotted as a function of donor. […]

[2] = tested on: human bone marrow-derived hematopoietic cell populations; assay: CFC and iATP assays, all 7 cell populations (Example 3); format: cell-based; settings: most of populations; 14 days; up to 1 nM
Experimental: The compound was dissolved in 1 ml of Iscove's Modified Dulbecco's Medium (IMDM) and a serial dose response prepared in single log doses so that the final dose in culture ranged from 1 nM to 1×10^−16 M. All working dilutions were performed in IMDM.
Starting with human bone marrow aspirate, the mononuclear cell (MNC) fraction was separated from the whole bone marrow using Ficoll-Paque density gradient centrifugation. […] The cell concentration was adjusted so that the final cell concentration in culture was 10,000 cells/well.
Human bone marrow MNC was dissolved in IMDM and cultured at a concentration of 10,000 cell/well in a CAMEO™-96 Master Mix (HemoGenix, Inc., Colorado Springs, Colo.). […]
Prior to processing all 96-well plates, the total colony counts/well were manually enumerated by microscopy. The mean, standard deviation and percent coefficient of variation was calculated for all groups, transposed and plotted. The intracellular ATP (iATP) concentration was measured after manual enumeration.
The output of the luminometer is non-standardized Relative Luminescence Units (RLU). […] This allowed the RLU values to be automatically calculated into standardized ATP (μM) units. For both the RLU and ATP values derived from each well, the luminometer software calculated the mean, standard deviation and percent coefficient of variation.

[3] = tested on: CFU-Mk, platelet precursors (human bone marrow mononuclear cells); assay: Colony forming unit (CFU) assay (Example 6); format: cell-based; settings: for effect of antagonist on substance P enhanced platelet colony formation: in the presence of substance P
Description: (§1) As stem cells differentiate in response to growth factors, they form a colony of cells with distinct morphologies that can be visualized using a microscope. This study examined the formation of three different progenitor cell populations, erythrocytes, platelets and granulocytes/macrophages.
(§2) Bone marrow aspirates were obtained from three healthy donors between 18 and 35 years of age following appropriate guidelines and protocols. Bone marrow mononuclear cells were isolated using a Ficoll-Hypaque density gradient, separating red blood cells from the others. Cells from each donor were processed independently and used for setting up individual experiments to assess the effects, if any, of donor variability.
(§3) Cells (1×10^5) were plated in duplicate onto 35 mm tissue culture plates for each condition tested and set up as described in Rameshwar et al. 1993, Blood. 81:2, 391-398. Erythroid and granulocyte/macrophage cultures were plated using methylcellulose and megakaryocyte cultures (platelet precursors) used a collagen-based support (StemCell Technologies, Vancouver, Canada, catalogue #04973). […] CP 99,994 (Pfizer) was used as a neurokinin-1 receptor antagonist and SR 48968 (Sanofi) was used as a neurokinin-2 receptor antagonist.
Cultures were set up with limited cytokines and growth factors which would promote differentiation of one progenitor per plate.
Each compound was dissolved in endotoxin-free water to a final concentration of 0.1 mM. After reconstitution, the solutions were aliquoted into siliconized microcentrifuge tubes and exposed to nitrogen gas, eliminating oxygen in the head space of the enclosure. All aliquots were stored at −20° C. until use and used within one month of reconstitution. See, Rameshwar, et al. 1997, J. Immunol.
Cultures were incubated at 37° C. with 5% CO2 for approximately 14 days, after which colonies were manually enumerated using a microscope. […]

[4] = tested on: neurokinin-1 (NK1) receptor; NK2 and NK3 receptors; settings: Tousignant et al. 1990; cited from earlier work
[5] = tested on: CFU-E (human bone marrow mononuclear cells); assay: Colony forming unit (CFU) assay (Example 6); format: cell-based; settings: approximately 14 days; FIG. 2
Description: as §1, §2
as §3, with “antagonist. […]” for “antagonist.”

[6] = tested on: BFU-E (human bone marrow mononuclear cells); assay: Colony forming unit (CFU) assay (Example 6); format: cell-based; settings: approximately 14 days; FIG. 1
Description: as §1, §2
as §3, with “antagonist. […]” for “antagonist.”

CC(C)C[C@H](NC(=O)CN(C)C(=O)[C@H](Cc1ccccc1)NC(=O)[C@H](Cc1ccccc1)NC(=O)[C@H](CCC(N)=O)NC(=O)[C@H](CCC(N)=O)NC(=O)[C@@H]1CCCN1C(=O)[C@H](CCCCN)NC(=O)[C@@H]1CCCN1C(=O)[C@@H](N)CCCNC(=N)N)C(=O)N[C@@H](CCS(C)(=O)=O)C(N)=O [Homspera®]
toxicity [1]: no apparent toxicity | cytotoxicity [2]: apparent absence of distinct cytotoxicity

COc1ccccc1CN[C@H]1CCCN[C@H]1c1ccccc1 [CP-99,994]
effect of antagonist on substance P enhanced platelet colony formation [3]: blocks the stimulatory activity of substance P

CC(=O)NC1(c2ccccc2)CCN(CC[C@H](CN(C)C(=O)c2ccccc2)c2ccc(Cl)c(Cl)c2)CC1 [SR48968]
effect of antagonist on substance P enhanced platelet colony formation [3]: no effect on substance P activity

RPKPQQFFGLM [substance P]
neurokinin receptor specificity [4]: can also activate the neurokinin-2 (NK2) and neurokinin-3 (NK3) receptors | effective concentration, platelet precursors (CFU-Mk) [3]: 10^−8 M | CFU-E colony formation, enhancement from control values [5]: about 70% | BFU-E colony formation, increase from control values [6]: ~60%
